Data set [1] in a line: Five-Day Study in DIO Mice: plasma and brain compound levels. Particulars: mouse, in vivo, 30 mg/kg.
Another data set can be described thus: in vivo. The conditions noted are these: mouse, 30 mg/kg.

SMILES strings stand for the structures. “And” between values parts separate entries of the source, which are not always exact repeats. Identical values can stand only once.

As for `CCc1nc2ccc(C(c3ccc(Cl)cc3)c3ccc(Cl)cc3)cc2n1C1CCN(S(=O)(=O)C(F)(F)F)CC1` [Example 328], the concentration at 2 h in data set [1] was 8360 ng/mL and 291 ng/g.

`O=S(=O)(N1CCC(n2c(C3CC3)nc3ccc(C(c4ccc(Cl)cc4)c4ccc(Cl)cc4)cc32)CC1)C(F)(F)F` [Example 335]: in “in vivo”, the concentration at 2 h is 7660 ng/mL and 208 ng/g.

The record behind these values is patent publication US20190031618A1, “BENZIMIDAZOLE DERIVATIVES USEFUL AS CB-1 INVERSE AGONISTS” (Janssen Pharmaceutica NV, priority 2015, published 2019).
